The structures appear in SMILES notation.

Chain of Transcription factor Jun (P05412 whole entry): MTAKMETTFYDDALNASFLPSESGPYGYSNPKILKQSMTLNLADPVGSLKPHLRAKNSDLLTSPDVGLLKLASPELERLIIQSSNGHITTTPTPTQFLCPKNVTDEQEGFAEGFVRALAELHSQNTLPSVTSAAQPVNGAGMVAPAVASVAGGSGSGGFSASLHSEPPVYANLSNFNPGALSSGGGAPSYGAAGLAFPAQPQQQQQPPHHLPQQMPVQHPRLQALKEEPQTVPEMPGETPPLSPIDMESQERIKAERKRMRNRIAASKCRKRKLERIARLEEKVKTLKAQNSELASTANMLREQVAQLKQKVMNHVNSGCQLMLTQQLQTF

This experiment concerns the target Transcription factor Jun (Homo sapiens, UniProt P05412). The experiment is described as follows: Concentration required to inhibit activator protein-1(AP-1) mediated transcriptional activation in human Jurkat T-cells.
Take `Cc1cc(C(=O)Nc2cc(C(F)(F)F)cc(C(F)(F)F)c2)nc(Cl)n1` [2-Chloro-6-methyl-pyrimidine-4-carboxylic acid (3,5-bis-trifluoromethyl-phenyl)-amide]: the concentration for half-maximal inhibition (IC50) (usually the concentration needed to halve the response being measured) was > 10 µM.

As to `N#Cc1ncc(C(=O)Nc2cc(C(F)(F)F)cc(C(F)(F)F)c2)c(C(F)(F)F)n1` [2-Cyano-4-trifluoromethyl-pyrimidine-5-carboxylic acid (3,5-bis-trifluoromethyl-phenyl)-amide], the IC50 was > 10 µM.

For `O=C(Nc1cc(C(F)(F)F)cc(C(F)(F)F)c1)c1cnc(C(F)(F)F)nc1` [2-Trifluoromethyl-pyrimidine-5-carboxylic acid (3,5-bis-trifluoromethyl-phenyl)-amide], the IC50 was > 10 µM.

Turning to `O=C(Nc1cc(C(F)(F)F)cc(C(F)(F)F)c1)c1cnc(C(F)(F)F)nc1C(F)(F)F` [2,4-Bis-trifluoromethyl-pyrimidine-5-carboxylic acid (3,5-bis-trifluoromethyl-phenyl)-amide], the IC50 was > 10 µM.

On to `O=C(Nc1cc(C(F)(F)F)cc(C(F)(F)F)c1)c1cnc(Cl)nc1` [2-Chloro-pyrimidine-5-carboxylic acid (3,5-bis-trifluoromethyl-phenyl)-amide], for which the IC50 stood at 0.3 µM.

Regarding `Cc1ncc(C(=O)Nc2cc(C(F)(F)F)cc(C(F)(F)F)c2)c(C(F)(F)F)n1` [2-Methyl-4-trifluoromethyl-pyrimidine-5-carboxylic acid (3,5-bis-trifluoromethyl-phenyl)-amide], the half-inhibitory concentration (IC50) was > 10 µM.

`O=C(Nc1cc(C(F)(F)F)cc(C(F)(F)F)c1)c1cc(C(F)(F)F)nc(Cl)n1` [2-Chloro-6-trifluoromethyl-pyrimidine-4-carboxylic acid (3,5-bis-trifluoromethyl-phenyl)-amide]: the IC50 is > 10 µM.

`O=C(Nc1cc(C(F)(F)F)cc(C(F)(F)F)c1)c1cc(Cl)nc(Cl)n1` [2,6-Dichloro-pyrimidine-4-carboxylic acid (3,5-bis-trifluoromethyl-phenyl)-amide]: the IC50 was > 10 µM.

`Cc1nc(C(F)(F)F)ncc1C(=O)Nc1cc(C(F)(F)F)cc(C(F)(F)F)c1` [4-Methyl-2-trifluoromethyl-pyrimidine-5-carboxylic acid (3,5-bis-trifluoromethyl-phenyl)-amide]: the IC50 was > 10 µM.

On to `O=C(Nc1cc(C(F)(F)F)cc(C(F)(F)F)c1)c1cnc(C(F)(F)F)nc1Cl` [4-Chloro-2-trifluoromethyl-pyrimidine-5-carboxylic acid (3,5-bis-trifluoromethyl-phenyl)-amide], for which the IC50 was > 10 µM.

In turn, `O=C(Nc1cc(C(F)(F)F)cc(C(F)(F)F)c1)c1cnc(Cl)nc1C(F)(F)C(F)(F)F` [2-Chloro-4-pentafluoroethyl-pyrimidine-5-carboxylic acid (3,5-bis-trifluoromethyl-phenyl)-amide] gave a concentration for half-maximal inhibition (IC50) of 0.6 µM.

Regarding `CCCc1nc(Cl)ncc1C(=O)Nc1cc(C(F)(F)F)cc(C(F)(F)F)c1` [2-Chloro-4-propyl-pyrimidine-5-carboxylic acid (3,5-bis-trifluoromethyl-phenyl)-amide], the midpoint of inhibition, the IC50, lay at 0.5 µM.

The molecule `CCc1nc(Cl)ncc1C(=O)Nc1cc(C(F)(F)F)cc(C(F)(F)F)c1` [2-Chloro-4-ethyl-pyrimidine-5-carboxylic acid (3,5-bis-trifluoromethyl-phenyl)-amide] gave an IC50 of 0.3 µM. Against the preceding molecule, the IC50 is about 1.7-fold lower.

As for `O=C(Nc1cc(C(F)(F)F)cc(C(F)(F)F)c1)c1ccc(Cl)cc1C(F)(F)F` [N-(3,5-Bis-trifluoromethyl-phenyl)-4-chloro-2-trifluoromethyl-benzamide], the IC50 is > 30 µM.

With `O=C(Nc1cc(C(F)(F)F)cc(C(F)(F)F)c1)c1cnc(-c2ccccc2)nc1` [2-Phenyl-pyrimidine-5-carboxylic acid (3,5-bis-trifluoromethyl-phenyl)-amide], the IC50 is > 10 µM.

Take `O=C(Nc1cc(C(F)(F)F)cc(C(F)(F)F)c1)c1cnc(Cl)nc1-c1cccs1` [2-Chloro-4-thiophen-2-yl-pyrimidine-5-carboxylic acid (3,5-bis-trifluoromethyl-phenyl)-amide]: inhibition was half-maximal at 8 µM (IC50).
